In PubChem BioAssay (NCI):
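Dose response: 5 concentrations. Exposure: 48 h. Format: 96-well plates. Endpoint: linear interpolation; highest concentration if not reached. GI50 marks 50% less growth. TGI: total growth inhibition.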

Columns and labels:
Test in all cases: NCI tumour cell line growth inhibition, 48 h
KM12 colon = test system: KM12 colon
NCI-H226 lung = test system: NCI-H226 lung
SF-295 CNS = test system: SF-295 CNS
SW-620 colon = test system: SW-620 colon
SNB-19 CNS = test system: SNB-19 CNS
HOP-62 NSCLC = test system: HOP-62 NSCLC
UACC-257 melanoma = test system: UACC-257 melanoma
MCF7 breast = test system: MCF7 breast
UACC-62 melanoma = test system: UACC-62 melanoma
SK-MEL-2 melanoma = test system: SK-MEL-2 melanoma

N#Cc1ccc(-c2nc(C#N)c(N)o2)cc1
TGI (KM12 colon): > 10 µM
TGI (NCI-H226 lung): > 10 µM
TGI (SF-295 CNS): > 10 µM
TGI (SW-620 colon): > 10 µM
TGI (SNB-19 CNS): > 10 µM
TGI (HOP-62 NSCLC): > 10 µM
TGI (UACC-257 melanoma): > 10 µM
TGI (MCF7 breast): > 10 µM
TGI (UACC-62 melanoma): > 10 µM

CC(C)c1ccc2nc3ccc(C(=O)NCCN(C)C)cn3c(=O)c2c1
TGI (KM12 colon): 33 µM
TGI (NCI-H226 lung): 37.1 µM
TGI (SF-295 CNS): 23.8 µM
TGI (SW-620 colon): 28.6 µM
TGI (SNB-19 CNS): > 100 µM
TGI (HOP-62 NSCLC): 31.4 µM
TGI (UACC-257 melanoma): 27.8 µM
TGI (MCF7 breast): 30.8 µM
TGI (UACC-62 melanoma): 32.3 µM

O=c1nc(-c2ccccc2)c2c3c(cccn13)CCC2
TGI (KM12 colon): > 100 µM
TGI (NCI-H226 lung): > 100 µM
TGI (SF-295 CNS): > 100 µM
TGI (SW-620 colon): > 100 µM
TGI (SNB-19 CNS): > 100 µM
TGI (HOP-62 NSCLC): > 100 µM
TGI (UACC-257 melanoma): > 100 µM
TGI (SK-MEL-2 melanoma): > 100 µM
TGI (UACC-62 melanoma): > 100 µM

CCc1ccccc1NC(=O)C(=O)C(C(=O)c1ccc(OC)cc1)c1ccc(OC)cc1 (stereo not drawn)
TGI (KM12 colon): > 100 µM
TGI (NCI-H226 lung): > 100 µM
TGI (SF-295 CNS): > 100 µM
TGI (SW-620 colon): > 100 µM
TGI (SNB-19 CNS): > 100 µM
TGI (HOP-62 NSCLC): > 100 µM
TGI (UACC-257 melanoma): > 100 µM
TGI (SK-MEL-2 melanoma): > 100 µM
TGI (UACC-62 melanoma): > 100 µM

COc1ccc(C2C(Cl)C(=O)N2n2cnc3ccccc3c2=O)cc1OC (stereo not drawn)
TGI (KM12 colon): > 100 µM
TGI (NCI-H226 lung): > 100 µM
TGI (SF-295 CNS): > 100 µM
TGI (SW-620 colon): > 100 µM
TGI (SNB-19 CNS): > 100 µM
TGI (HOP-62 NSCLC): > 100 µM
TGI (UACC-257 melanoma): > 100 µM
TGI (SK-MEL-2 melanoma): > 100 µM
TGI (UACC-62 melanoma): > 100 µM

COC(=O)c1nc(NN)[nH]c(=O)c1CCCCCc1c(C(=O)OC)[nH]c(NN)cc1=O
TGI (KM12 colon): > 100 µM
TGI (NCI-H226 lung): > 100 µM
TGI (SF-295 CNS): > 100 µM
TGI (SW-620 colon): > 100 µM
TGI (SNB-19 CNS): > 100 µM
TGI (HOP-62 NSCLC): > 100 µM
TGI (UACC-257 melanoma): > 100 µM
TGI (SK-MEL-2 melanoma): > 100 µM
TGI (UACC-62 melanoma): > 100 µM

CC1=C(C(=O)NC2CCCCC2)CC(C(=O)NC2CCCCC2)=C(C)N1
TGI (KM12 colon): > 100 µM
TGI (SF-295 CNS): > 100 µM
TGI (SW-620 colon): > 100 µM
TGI (SNB-19 CNS): > 100 µM
TGI (HOP-62 NSCLC): > 100 µM
TGI (UACC-257 melanoma): > 100 µM
TGI (SK-MEL-2 melanoma): > 100 µM
TGI (MCF7 breast): > 100 µM
TGI (UACC-62 melanoma): > 100 µM

COc1cc(-c2csc(NC(=O)c3cc(C(F)(F)F)cc(C(F)(F)F)c3)n2)cc(OC)c1OC
GI50 (KM12 colon): 2.86 µM
TGI (KM12 colon): > 100 µM
GI50 (SF-295 CNS): 2.27 µM
TGI (SF-295 CNS): 14.7 µM
GI50 (SW-620 colon): 3.44 µM
TGI (SW-620 colon): > 100 µM
GI50 (SNB-19 CNS): 3.89 µM
TGI (SNB-19 CNS): > 100 µM
GI50 (HOP-62 NSCLC): 3.03 µM
TGI (HOP-62 NSCLC): > 100 µM
GI50 (SK-MEL-2 melanoma): 1.6 µM
TGI (SK-MEL-2 melanoma): 4.81 µM
GI50 (MCF7 breast): 2.16 µM
TGI (MCF7 breast): > 100 µM

O=C1[C@@H](c2ccc(Cl)cc2)[C@H]2CC=C[C@H]2N1O
TGI (KM12 colon): > 100 µM
TGI (NCI-H226 lung): > 100 µM
TGI (SF-295 CNS): > 100 µM
TGI (SW-620 colon): > 100 µM
TGI (SNB-19 CNS): > 100 µM
TGI (HOP-62 NSCLC): > 100 µM
TGI (UACC-257 melanoma): > 100 µM
TGI (SK-MEL-2 melanoma): > 100 µM
TGI (UACC-62 melanoma): > 100 µM

COc1ccc2nc(-c3ccccc3)cc(Nc3cccc(/C(C)=N\O)c3)c2c1
GI50 (NCI-H226 lung): 3.18 µM
TGI (NCI-H226 lung): 11.1 µM
GI50 (SF-295 CNS): 2.05 µM
TGI (SF-295 CNS): 5.13 µM
GI50 (SW-620 colon): 19.4 µM
TGI (SW-620 colon): > 100 µM
GI50 (SNB-19 CNS): 32.9 µM
TGI (SNB-19 CNS): > 100 µM
GI50 (HOP-62 NSCLC): 1.84 µM
TGI (HOP-62 NSCLC): 4.27 µM
GI50 (UACC-257 melanoma): 19.4 µM
TGI (UACC-257 melanoma): > 100 µM
GI50 (SK-MEL-2 melanoma): 55.7 µM
TGI (SK-MEL-2 melanoma): > 100 µM
GI50 (MCF7 breast): 16.8 µM
TGI (MCF7 breast): > 100 µM
GI50 (UACC-62 melanoma): 5.42 µM
TGI (UACC-62 melanoma): 30.5 µM

COc1ccc(-n2nnc3c(sc4ccccc43)c2=O)cc1
GI50 (KM12 colon): > 100 µM
TGI (KM12 colon): > 100 µM
GI50 (SW-620 colon): > 100 µM
TGI (SW-620 colon): > 100 µM
GI50 (UACC-257 melanoma): > 100 µM
TGI (UACC-257 melanoma): > 100 µM
GI50 (SK-MEL-2 melanoma): > 100 µM
TGI (SK-MEL-2 melanoma): > 100 µM
GI50 (MCF7 breast): > 100 µM
TGI (MCF7 breast): > 100 µM
GI50 (UACC-62 melanoma): > 100 µM
TGI (UACC-62 melanoma): > 100 µM

COC(=O)C1=CCON(c2ccccc2)C1c1ccccc1 (stereo not drawn)
TGI (KM12 colon): > 100 µM
TGI (NCI-H226 lung): > 100 µM
TGI (SW-620 colon): > 100 µM
TGI (SNB-19 CNS): > 100 µM
TGI (HOP-62 NSCLC): > 100 µM
TGI (SK-MEL-2 melanoma): > 100 µM
TGI (UACC-62 melanoma): > 100 µM

CON(C)C(=O)C(C)NC(=O)OCc1ccccc1 (stereo not drawn)
TGI (KM12 colon): > 100 µM
TGI (NCI-H226 lung): > 100 µM
TGI (SF-295 CNS): > 100 µM
TGI (SW-620 colon): > 100 µM
TGI (SNB-19 CNS): > 100 µM
TGI (HOP-62 NSCLC): > 100 µM
TGI (UACC-257 melanoma): > 100 µM
TGI (MCF7 breast): > 100 µM
TGI (UACC-62 melanoma): > 100 µM

C[n+]1cc2c3c(ccc2c2ccc4cc5c(cc4c21)OCO5)OCO3
GI50 (KM12 colon): 0.455 µM
TGI (KM12 colon): 1.64 µM
GI50 (NCI-H226 lung): 1.54 µM
TGI (NCI-H226 lung): 2.98 µM
GI50 (SF-295 CNS): 1.22 µM
TGI (SF-295 CNS): 2.53 µM
GI50 (SW-620 colon): 0.174 µM
TGI (SW-620 colon): 0.36 µM
GI50 (SNB-19 CNS): 1.29 µM
TGI (SNB-19 CNS): 2.72 µM
GI50 (HOP-62 NSCLC): 0.349 µM
TGI (HOP-62 NSCLC): 1.44 µM
GI50 (UACC-257 melanoma): 1.18 µM
TGI (UACC-257 melanoma): 2.43 µM
GI50 (SK-MEL-2 melanoma): 1.33 µM
TGI (SK-MEL-2 melanoma): 2.79 µM
GI50 (UACC-62 melanoma): 0.744 µM
TGI (UACC-62 melanoma): 2.08 µM

CSc1nc2c(c(O)c(C)c(=O)n2C2OC(COC(C)=O)C(OC(C)=O)C(OC(C)=O)C2OC(C)=O)c(=O)n1C (stereo not drawn)
TGI (KM12 colon): > 100 µM
TGI (NCI-H226 lung): > 100 µM
TGI (SF-295 CNS): > 100 µM
TGI (SW-620 colon): > 100 µM
TGI (SNB-19 CNS): > 100 µM
TGI (HOP-62 NSCLC): > 100 µM
TGI (UACC-257 melanoma): > 100 µM
TGI (SK-MEL-2 melanoma): > 100 µM
TGI (UACC-62 melanoma): > 100 µM

CC(C)N(C(=O)C12C3C4C1C1C2C3C41C(O)C(C)(C)C)C(C)C (stereo not drawn)
TGI (SF-295 CNS): > 50 µM
TGI (SW-620 colon): > 50 µM
TGI (SNB-19 CNS): > 50 µM
TGI (HOP-62 NSCLC): > 50 µM
TGI (UACC-62 melanoma): > 50 µM

CCC1(Br)C(=O)NC(=O)N(C2CC(O)C(CO)O2)C1N=[N+]=[N-] (stereo not drawn)
TGI (SF-295 CNS): > 100 µM
TGI (SW-620 colon): > 100 µM
TGI (SNB-19 CNS): > 100 µM
TGI (HOP-62 NSCLC): > 100 µM
TGI (UACC-257 melanoma): > 100 µM
TGI (SK-MEL-2 melanoma): > 100 µM
TGI (UACC-62 melanoma): > 100 µM

COc1ccc([C@H]2CC(=O)N3CCCC3N2)cc1 (stereo partly drawn)
TGI (KM12 colon): > 100 µM
TGI (NCI-H226 lung): > 100 µM
TGI (SF-295 CNS): > 100 µM
TGI (SW-620 colon): > 100 µM
TGI (SNB-19 CNS): > 100 µM
TGI (HOP-62 NSCLC): > 100 µM
TGI (UACC-257 melanoma): > 100 µM
TGI (SK-MEL-2 melanoma): > 100 µM
TGI (UACC-62 melanoma): > 100 µM

Cc1cc(C)c2c(c1)CN1CN2Cc2cc(C)cc(C)c21
TGI (KM12 colon): 37.1 µM
TGI (NCI-H226 lung): 61.5 µM
TGI (SF-295 CNS): 37.4 µM
TGI (SW-620 colon): > 100 µM
TGI (HOP-62 NSCLC): 53.2 µM
TGI (UACC-62 melanoma): 35.9 µM

Nc1nc2c(ncn2Cc2ccccc2CCO)c(=O)[nH]1
TGI (KM12 colon): > 100 µM
TGI (NCI-H226 lung): > 100 µM
TGI (SF-295 CNS): > 100 µM
TGI (SW-620 colon): > 100 µM
TGI (SNB-19 CNS): > 100 µM
TGI (HOP-62 NSCLC): > 100 µM
TGI (SK-MEL-2 melanoma): > 100 µM
TGI (UACC-62 melanoma): > 100 µM

CC1(C)C(=O)C(O)=CC2C1=CCC1C2(C)C(=O)CC2(C)C(C(C)(O)C(=O)CC(O)C(C)(C)O)C(O)CC12C (stereo not drawn)
TGI (KM12 colon): > 100 µM
TGI (NCI-H226 lung): 7.31 µM
TGI (SF-295 CNS): 13.1 µM
TGI (SW-620 colon): > 50.7 µM
TGI (SNB-19 CNS): 12.7 µM
TGI (HOP-62 NSCLC): 11.5 µM
TGI (UACC-257 melanoma): 30.2 µM
TGI (SK-MEL-2 melanoma): 6.12 µM
TGI (UACC-62 melanoma): 29.7 µM
